Laboratory results from article PMC8418346, “Aromatic L-amino acid decarboxylase deficiency: a patient-derived neuronal model for precision therapies” (Brain, 2021).
Each block holds one molecule with its values, some of them ahead of it.

Tests used:
[1] = target: T1, AADC (aromatic L-amino acid decarboxylase), recombinant (Homo sapiens, UniProt P20711); experiment: kinetic parameters of recombinant AADC (method in supplement); format: biochemical; conditions: wild-type reference of the C100S comparison; main text does not state whether measured here or taken from earlier work
T1 construct: gene DDC; recombinant AADC produced in vitro; native homodimer
T1 sequence (P20711 1-480): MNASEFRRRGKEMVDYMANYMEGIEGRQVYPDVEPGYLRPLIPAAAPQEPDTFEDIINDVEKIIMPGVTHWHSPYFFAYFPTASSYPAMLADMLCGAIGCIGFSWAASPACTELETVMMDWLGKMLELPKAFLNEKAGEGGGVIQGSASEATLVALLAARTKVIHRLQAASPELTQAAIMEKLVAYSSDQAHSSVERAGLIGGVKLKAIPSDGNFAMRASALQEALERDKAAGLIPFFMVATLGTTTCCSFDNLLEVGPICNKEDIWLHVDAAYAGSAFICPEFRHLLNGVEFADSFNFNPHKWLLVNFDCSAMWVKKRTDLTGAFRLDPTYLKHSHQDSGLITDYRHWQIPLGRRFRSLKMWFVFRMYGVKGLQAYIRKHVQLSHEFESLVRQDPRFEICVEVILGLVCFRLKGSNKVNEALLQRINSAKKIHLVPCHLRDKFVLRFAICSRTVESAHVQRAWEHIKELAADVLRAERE

[2] = target: T2, AADC (aromatic L-amino acid decarboxylase), recombinant (Homo sapiens, UniProt P20711, C100S); experiment: PLP binding affinity of recombinant AADC (method in supplement)
T2 construct: gene DDC; recombinant AADC produced in vitro; native homodimer
T2 sequence (P20711 1-480 C100S): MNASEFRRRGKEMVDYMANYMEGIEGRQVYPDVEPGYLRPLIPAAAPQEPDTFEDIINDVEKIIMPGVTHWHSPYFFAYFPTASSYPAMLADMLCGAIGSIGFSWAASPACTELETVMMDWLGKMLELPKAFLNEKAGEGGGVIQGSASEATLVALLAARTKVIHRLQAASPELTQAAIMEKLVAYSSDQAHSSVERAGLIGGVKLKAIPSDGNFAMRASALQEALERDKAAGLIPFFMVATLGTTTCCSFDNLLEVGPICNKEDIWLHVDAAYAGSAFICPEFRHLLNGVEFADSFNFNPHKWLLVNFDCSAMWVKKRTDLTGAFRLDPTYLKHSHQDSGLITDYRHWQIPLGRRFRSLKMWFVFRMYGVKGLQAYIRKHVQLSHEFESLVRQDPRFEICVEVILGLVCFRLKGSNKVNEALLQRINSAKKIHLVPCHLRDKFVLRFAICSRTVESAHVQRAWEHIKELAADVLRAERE
Source text: PLP binding affinity of recombinant AADC (method in supplement) on AADC (aromatic L-amino acid decarboxylase), recombinant | with a KD(PLP) consistently lower than previously reported values for AADC variants

[3] = substrate: N[C@@H](Cc1ccc(O)c(O)c1)C(=O)O; experiment: kinetic parameters of recombinant AADC (method in supplement); format: biochemical, Homo sapiens
Source text: kinetic parameters of recombinant AADC (method in supplement) on AADC (aromatic L-amino acid decarboxylase), recombinant | attributed to a slight decrease in L-DOPA affinity (KM)

Molecule: N[C@@H](Cc1ccc(O)c(O)c1)C(=O)O [L-DOPA]
KM [1]: catalytic activity (kcat) of AADCC100S was indeed similar to that observed for wild-type

Kd [2]: 112 ± 14 nM
Molecule: Cc1ncc(COP(=O)(O)O)c(C=O)c1O [PLP]

B1: AADC (aromatic L-amino acid decarboxylase), recombinant (Homo sapiens; C100S) (protein)
chain: MNASEFRRRGKEMVDYMANYMEGIEGRQVYPDVEPGYLRPLIPAAAPQEPDTFEDIINDVEKIIMPGVTHWHSPYFFAYFPTASSYPAMLADMLCGAIGSIGFSWAASPACTELETVMMDWLGKMLELPKAFLNEKAGEGGGVIQGSASEATLVALLAARTKVIHRLQAASPELTQAAIMEKLVAYSSDQAHSSVERAGLIGGVKLKAIPSDGNFAMRASALQEALERDKAAGLIPFFMVATLGTTTCCSFDNLLEVGPICNKEDIWLHVDAAYAGSAFICPEFRHLLNGVEFADSFNFNPHKWLLVNFDCSAMWVKKRTDLTGAFRLDPTYLKHSHQDSGLITDYRHWQIPLGRRFRSLKMWFVFRMYGVKGLQAYIRKHVQLSHEFESLVRQDPRFEICVEVILGLVCFRLKGSNKVNEALLQRINSAKKIHLVPCHLRDKFVLRFAICSRTVESAHVQRAWEHIKELAADVLRAERE
notes: recombinant AADC produced in vitro; native homodimer
Km [3]: 420 ± 100 µM
kcat [3]: 6.9 ± 0.6 s⁻¹
